Literature values as cited in patent US20100322880A1, “UVA FILTERS BASED ON ASCORBIC ACID DERIVATIVES” (Merck Patent GmbH, priority 2008, published 2010).

Test system: prolyl-4-hydroxylase
Details: for supporting the activity of the enzyme prolyl-4-hydroxylase: literature statement, no figures

SMILES | affinity to the enzyme (disubstituted compared with the monosubstituted compound) | supporting the activity of the enzyme prolyl-4-hydroxylase
CC(=O)Oc1ccccc1C(=O)OC[C@H](OC(=O)c1ccccc1OC(C)=O)[C@H]1OC(=O)C(O)=C1O [O^5O^6-bis(2-acetoxybenzoyl) L-ascorbate] | lower affinity | capable of supporting the activity
CC(=O)Oc1ccccc1C(=O)OC[C@H](O)[C@H]1OC(=O)C(O)=C1O [O^6-(2-acetoxybenzoyl) L-ascorbate] | – | capable of supporting the activity
